pEC50: −log10 of the molar value.
What was measured:
SD mice = experiment: Acute toxicity, single transvenous administration (Test Example 3); format: in vivo; conditions: 6-week-old male SD mice, 2.5 mg/kg transvenously once in physiological saline
Procedure: The aforementioned compound was examined for acute toxicity. Specifically, 6-week-old SD mice (male) were divided into several groups (2 to 3 mice in each group). Subsequently, each of the compounds of Examples was dissolved in a physiological saline solution, and the solution was transvenously administered to the mice (dose: 2.5 mg/kg) once. Then, the number of dead mice was counted.

CXCR4 = molecular target: T1, CXCR4 (Homo sapiens, UniProt P61073); experiment: Inhibition of 125I-SDF-1α binding to receptors CXCR4 on MT-4 cells (Test Example 2); conditions: binding-inhibition % at 0.01 μM, 2 hours under ice-cooling, read-out: Inhibition rate (%)
T1 construct: endogenous in cells; host or cells: MT-4 cells
T1 sequence (P61073 whole entry): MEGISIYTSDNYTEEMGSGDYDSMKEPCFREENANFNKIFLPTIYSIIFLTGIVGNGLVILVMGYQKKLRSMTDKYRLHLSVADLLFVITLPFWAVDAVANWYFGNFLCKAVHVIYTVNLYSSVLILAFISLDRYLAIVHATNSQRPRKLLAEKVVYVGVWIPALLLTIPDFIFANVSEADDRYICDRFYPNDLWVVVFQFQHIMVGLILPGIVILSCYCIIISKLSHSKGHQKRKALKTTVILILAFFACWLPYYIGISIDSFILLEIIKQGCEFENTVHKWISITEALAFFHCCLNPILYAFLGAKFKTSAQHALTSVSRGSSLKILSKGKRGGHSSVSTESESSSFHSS
Procedure: MT-4 cells (5×10^6/0.2 ml/well) were cultured on a 24-well microtiter plate. After the cells were incubated for 24 hours at 37° C. in a carbon dioxide gas incubator, a culture medium was replaced with a buffer solution (0.1% BSA-containing RPMI-1640). Together with a ligand ^125I-SDF-1α (specific activity: 2,200 Ci/mmol; available from Daiichi Pure Chemicals Co., Ltd. (Tokyo)), test materials with various concentrations were subjected to a binding reaction for 2 hours under ice-cooling. […] Then, a rate of inhibition of the binding between radioactive ligands and receptors CXCR4 by a test material was calculated (a binding-inhibition % at 0.01 μM).

[1] = system: HIV-1IIIB infected MT-4 cells; experiment: Anti-HIV activity, HIV-1IIIB infected MT-4 cells, MTT method (Test Example 1); format: cell-based; conditions: Human immunodeficiency virus 1, MT4, 120 h, concentration required for inhibition of cell disorder due to HIV infection by 50%, MOI 0.01, 5 days
Procedure: Immediately after infection, HIV-1IIIB infected MT-4 cells (3.0×10^4/well, MOI (Multiplicity of infection): 0.01) were added to a 96-well microtiter plate together with the test compounds having different concentrations. The cells were cultured in a carbon dioxide incubator at 37° C. for 5 days, and the number of living cells was measured in accordance with the MTT (tetrazolium) method ([…], et al., J. of Virol. Method, 20, 309-321 […]). The antiviral activity is represented by the concentration required for inhibition of cell disorder due to HIV infection by 50% (EC50: 50% Effective Concentration) (μM), and the results are shown in Table 2.

## CCCN(CCC)CCCCNC(=O)c1cn2cc(CN(Cc3ncc[nH]3)Cc3nccn3C)ccc2n1 [Compound No. 30]
SD mice
  Dead mice/test mice: 0/3
CXCR4
  inhibition at 0.01 µM: 46%
[1]
  pEC50: 7.04

## CCCN(CCC)CCCCN(Cc1ccc(CN(Cc2ncc[nH]2)Cc2nccn2C)cc1)C(=O)C(F)(F)F [Compound No. 37, N-(4-dipropylamino-butyl)-2,2,2-trifluoro-N-(4-{[(1H-imidazol-2-ylmethyl)-(1-methyl-1H-imidazol-2-ylmethyl)-amino]-methyl}-benzyl)-acetamide]
SD mice
  Dead mice/test mice: 0/3
CXCR4
  inhibition at 0.01 µM: 92.3%
[1]
  pEC50: 8.52

## CCCN(CCC)CCCCN(CCC#N)Cc1ccc(CN(Cc2ncc[nH]2)Cc2nccn2C)cc1 [Compound No. 33, 3-[(4-dipropylamino-butyl)-(4-{[(1H-imidazol-2-ylmethyl)-(1-methyl-1H-imidazol-2-ylmethyl)-amino]-methyl}-benzyl)-amino]-propionitrile]
SD mice
  Dead mice/test mice: 0/3
CXCR4
  inhibition at 0.01 µM: 85.2%
[1]
  pEC50: 8.52

## CCCN(CCC)CCCCc1nc2cc(CN(Cc3ncc[nH]3)Cc3nccn3C)ccc2n1CCC [Compound No. 5, [4-(5-{[(1H-imidazol-2-ylmethyl)-(1-methyl-1H-imidazol-2-ylmethyl)-amino]-methyl}-1-propyl-1H-benzimidazol-2-yl)-butyl]-dipropyl-amine]
SD mice
  Dead mice/test mice: 0/3
CXCR4
  inhibition at 0.01 µM: 67%
[1]
  pEC50: 8.05

## CCCN(CCC)CCCc1nc2ccc(CN(Cc3ncc[nH]3)Cc3nccn3C)cc2n1CCC [Compound No. 46, [3-(6-{[(1H-imidazol-2-ylmethyl)-(1-methyl-1H-imidazol-2-ylmethyl)-amino]-methyl}-1-propyl-1H-benzimidazol-2-yl)-propyl]-dipropyl-amine]
SD mice
  Dead mice/test mice: 0/3
CXCR4
  inhibition at 0.01 µM: 74.6%
[1]
  pEC50: 7.77

## CCCN(CCC)CCCCN(Cc1ccc(CN(Cc2ncc[nH]2)Cc2nccn2C)cc1)CC(F)(F)F [Compound No. 31, N-(4-{[(1H-imidazol-2-ylmethyl)-(1-methyl-1H-imidazol-2-ylmethyl)-amino]-methyl}-benzyl)-N′,N′-dipropyl-N-(2,2,2-trifluoro-ethyl)-butane-1,4-diamine]
SD mice
  Dead mice/test mice: 0/3
CXCR4
  inhibition at 0.01 µM: 47.3%
[1]
  pEC50: 7.13

## CCCN(CCC)CCCCN(CC#N)Cc1ccc(CN(Cc2ncc[nH]2)Cc2nccn2C)cc1 [Compound No. 82, [(4-dipropylamino-butyl)-(4-[[(1H-imidazol-2-ylmethyl)-(1-methyl-1H-imidazol-2-ylmethyl)-amino]-methyl]-benzyl)-amino]-acetonitrile]
SD mice
  Dead mice/test mice: 0/3
CXCR4
  inhibition at 0.01 µM: 82.3%
[1]
  pEC50: 8.52

## CCCN(CCC)Cc1ccc(NC(=O)c2ccc(CN(Cc3ccc(CC)cn3)Cc3nccn3C)cc2)cc1 [Compound No. 16, 4-{[(5-ethyl-pyridin-2-ylmethyl)-(1-methyl-1H-imidazol-2-ylmethyl)-amino]-methyl}-N-(4-dipropylaminomethyl-phenyl)-benzamide]
SD mice
  Dead mice/test mice: 0/3
CXCR4
  inhibition at 0.01 µM: 46.9%
[1]
  pEC50: 8.52

## CCCN(CCC)CCCCN(CC(=O)OCC)Cc1ccc(CN(Cc2ncc[nH]2)Cc2ncc[nH]2)cc1 [Compound No. 97, [(4-[[bis-(1H-imidazol-2-ylmethyl)-amino]-methyl]-benzyl)-(4-dipropylamino-butyl)-amino]-acetic acid ethyl ester]
SD mice
  Dead mice/test mice: 0/3
CXCR4
  inhibition at 0.01 µM: 85.6%
[1]
  pEC50: 9.00

## CCCN(CCC)CCCCN(Cc1ccc(CN(Cc2ncc[nH]2)Cc2nccn2C)cc1)S(C)(=O)=O [Compound No. 21, N-(4-dipropylamino-butyl)-N-(4-{[(1H-imidazol-2-ylmethyl)-(1-methyl-1H-imidazol-2-ylmethyl)-amino]-methyl}-benzyl)-methanesulfonamide]
SD mice
  Dead mice/test mice: 0/3
CXCR4
  inhibition at 0.01 µM: 59.2%
[1]
  pEC50: 7.34

## CCCN(CCC)CCCC1NC(=O)c2ccc(CN(Cc3ncc[nH]3)Cc3nccn3C)cc2NC1=O (stereo not drawn) [Compound No. 14, 3-(3-dipropylaminopropyl)-8-{[(1H-imidazol-2-ylmethyl)-(1-methyl-1H-imidazol-2-ylmethyl)-amino]-methyl}-3,4-dihydro-1H-benzo[e][1,4]diazepin-2,5-dione]
SD mice
  Dead mice/test mice: 0/3
CXCR4
  inhibition at 0.01 µM: 32.9%
[1]
  pEC50: 8.22

## CCCN(CCC)CCCCN(CCC(=O)O)Cc1ccc(CN(Cc2ncc[nH]2)Cc2nccn2C)cc1 [Compound No. 51, 3-[(4-dipropylamino-butyl)-(4-{[(1H-imidazol-2-ylmethyl)-(1-methyl-1H-imidazol-2-ylmethyl)-amino]-methyl}-benzyl)-amino]-propionic acid]
SD mice
  Dead mice/test mice: 0/3
CXCR4
  inhibition at 0.01 µM: 85.8%
[1]
  pEC50: 8.70

## CCCN(CCC)CCCCN1CCc2cc(CN(Cc3ncc[nH]3)Cc3nccn3C)ccc2C1 [Compound No. 17, [4-(6-{[(1H-imidazol-2-ylmethyl)-(1-methyl-1H-imidazol-2-ylmethyl)-amino]-methyl}-3,4-dihydro-1H-isoquinolin-2-yl)-butyl]-dipropyl-amine]
SD mice
  Dead mice/test mice: 0/3
CXCR4
  inhibition at 0.01 µM: 93.5%
[1]
  pEC50: 8.52

## CCCN(CCC)CCCCN(CC(=O)O)Cc1ccc(CN(Cc2nccn2C)Cc2nccn2C)cc1 [Compound No. 100, [(4-[[bis-(1-methyl-1H-imidazol-2-ylmethyl)-amino]-methyl]-benzyl)-(4-dipropylamino-butyl)-amino]-acetic acid]
SD mice
  Dead mice/test mice: 0/3
CXCR4
  inhibition at 0.01 µM: 79.2%
[1]
  pEC50: 8.70

## CCCN(CCC)CCCCN(C)Cc1ccc(CNCc2nccn2Cc2nccn2C)cc1 [Compound No. 10]
SD mice
  Dead mice/test mice: 0/3
CXCR4
  inhibition at 0.01 µM: 20.4%
[1]
  pEC50: 8.05

## CN(CCCCN1CCCCC1)Cc1ccc(CN(Cc2ncc[nH]2)Cc2nccn2C)cc1 [Compound No. 44, (4-{[(1H-imidazol-2-ylmethyl)-(1-methyl-1H-imidazol-2-ylmethyl)-amino]-methyl}-benzyl)-methyl-(4-piperidin-1-ylbutyl)amine]
SD mice
  Dead mice/test mice: 0/3
CXCR4
  inhibition at 0.01 µM: 81.6%
[1]
  pEC50: 8.70

## CCCN(CCC)CCCCN(CC(=O)OC)Cc1ccc(CN(Cc2ncc[nH]2)Cc2ncc[nH]2)cc1 [Compound No. 87, [(4-[[bis-(1H-imidazol-2-ylmethyl)-amino]-methyl]-benzyl)-(4-dipropylamino-butyl)-amino]-acetic acid methyl ester]
SD mice
  Dead mice/test mice: 0/3
CXCR4
  inhibition at 0.01 µM: 82.1%
[1]
  pEC50: 8.52

## CCCN(CCC)CCCCN(CC(=O)O)Cc1ccc(CN(Cc2ncc[nH]2)Cc2ncc[nH]2)cc1 [Compound No. 88, [(4-[[bis-(1H-imidazol-2-ylmethyl)-amino]-methyl]-benzyl)-(4-dipropylamino-butyl)-amino]-acetic acid]
SD mice
  Dead mice/test mice: 0/3
CXCR4
  inhibition at 0.01 µM: 85%
[1]
  pEC50: 8.70

## CCCN(CCC)CCCCN(CC(=O)OC)Cc1ccc(CN(Cc2ncc[nH]2)Cc2nccn2C)cc1 [Compound No. 83, [(4-dipropylamino-butyl)-(4-[[(1H-imidazol-2-ylmethyl)-(1-methyl-1H-imidazol-2-ylmethyl)-amino]-methyl]-benzyl)-amino]-acetic acid methyl ester]
SD mice
  Dead mice/test mice: 0/3
CXCR4
  inhibition at 0.01 µM: 79.7%
[1]
  pEC50: 8.52
